Measured values published in the NIST ThermoML archive (doi:10.1021/je020131a).
Several values for one entry are separate records, joined by “and”; a condition that tells them apart may be missing. Equal values may be shown once. ± gives the expanded uncertainty stated by the source.

How the values were obtained:
[1] = Liquid; for viscosity: 101.3 kPa, Falling or rolling sphere viscometry; for mass density: 101.33 kPa, Vibrating tube method
[2] = xn = mol fraction of the nth substance listed; details: 101.3 kPa, Liquid, Falling or rolling sphere viscometry

CCCCCCCC [octane]
[1]
Details	mass density [kg/m3]	viscosity [mPa·s]
293.15 K	–	0.545 ± 0.021
298.15 K	698.5 ± 0.4	0.513 ± 0.021
303.15 K	–	0.484 ± 0.02
313.15 K	–	0.434 ± 0.02

CCOC(=O)OCC [diethyl carbonate]
[1]
Details	mass density [kg/m3]	viscosity [mPa·s]
293.15 K	–	0.795 ± 0.021
298.15 K	969.1 ± 0.3	0.749 ± 0.021
303.15 K	–	0.699 ± 0.021
313.15 K	–	0.623 ± 0.021

CCCCCC [hexane]
[1]
Details	mass density [kg/m3]	viscosity [mPa·s]
293.15 K	–	0.313 ± 0.02
298.15 K	654.8 ± 0.3	0.301 ± 0.02
303.15 K	–	0.282 ± 0.02
313.15 K	–	0.258 ± 0.02

CCCCCCC [heptane]
[1]
Details	mass density [kg/m3]	viscosity
293.15 K	–	0.411 ± 0.02 mPa·s
298.15 K	679.4 ± 0.3	0.388 ± 0.02 mPa·s
303.15 K	–	0.37 ± 0.02 mPa·s and 0.375 ± 0.02 mPa·s
313.15 K	–	0.334 ± 0.02 mPa·s

C1CCCCC1 [cyclohexane]
[1]
Details	mass density [kg/m3]	viscosity [mPa·s]
293.15 K	–	0.976 ± 0.021
298.15 K	773.8 ± 0.3	0.894 ± 0.021
303.15 K	–	0.813 ± 0.021
313.15 K	–	0.697 ± 0.021

COC(=O)OC [dimethyl carbonate]
[1]
Details	mass density [kg/m3]	viscosity [mPa·s]
293.15 K	–	0.626 ± 0.021
298.15 K	1063.5 ± 0.6	0.585 ± 0.021
303.15 K	–	0.536 ± 0.021
313.15 K	–	0.494 ± 0.02

COC(=O)OC [dimethyl carbonate] + CCCCCC
[2]
Details	viscosity [mPa·s]
293.15 K, x1 = 0.0722	0.312 ± 0.02
293.15 K, x1 = 0.1448	0.315 ± 0.02
293.15 K, x1 = 0.2286	0.325 ± 0.02
293.15 K, x1 = 0.3026	0.338 ± 0.02
293.15 K, x1 = 0.4102	0.359 ± 0.02
293.15 K, x1 = 0.5062	0.384 ± 0.02
293.15 K, x1 = 0.6026	0.412 ± 0.02
293.15 K, x1 = 0.7052	0.451 ± 0.02
293.15 K, x1 = 0.7974	0.494 ± 0.02
293.15 K, x1 = 0.901	0.552 ± 0.021
293.15 K, x1 = 0.9506	0.585 ± 0.021
293.15 K, x1 = 1	0.626 ± 0.021
298.15 K, x1 = 0.082	0.306 ± 0.02
298.15 K, x1 = 0.1269	0.311 ± 0.02
298.15 K, x1 = 0.2131	0.322 ± 0.02
298.15 K, x1 = 0.3197	0.336 ± 0.02
298.15 K, x1 = 0.3787	0.345 ± 0.02
298.15 K, x1 = 0.4712	0.362 ± 0.02
298.15 K, x1 = 0.5121	0.37 ± 0.02
298.15 K, x1 = 0.6067	0.392 ± 0.02
298.15 K, x1 = 0.6987	0.423 ± 0.02
298.15 K, x1 = 0.842	0.487 ± 0.02
298.15 K, x1 = 0.9248	0.53 ± 0.021
298.15 K, x1 = 0.9615	0.555 ± 0.021
298.15 K, x1 = 1	0.585 ± 0.021
303.15 K, x1 = 0.0468	0.287 ± 0.02
303.15 K, x1 = 0.0991	0.293 ± 0.02
303.15 K, x1 = 0.1951	0.305 ± 0.02
303.15 K, x1 = 0.295	0.314 ± 0.02
303.15 K, x1 = 0.3832	0.327 ± 0.02
303.15 K, x1 = 0.4865	0.342 ± 0.02
303.15 K, x1 = 0.5899	0.363 ± 0.02
303.15 K, x1 = 0.696	0.394 ± 0.02
303.15 K, x1 = 0.7947	0.433 ± 0.02
303.15 K, x1 = 0.8939	0.478 ± 0.02
303.15 K, x1 = 0.9436	0.507 ± 0.02
303.15 K, x1 = 1	0.536 ± 0.021
313.15 K, x1 = 0.0495	0.267 ± 0.02
313.15 K, x1 = 0.1	0.274 ± 0.02
313.15 K, x1 = 0.2092	0.286 ± 0.02
313.15 K, x1 = 0.3093	0.296 ± 0.02
313.15 K, x1 = 0.4043	0.306 ± 0.02
313.15 K, x1 = 0.4941	0.321 ± 0.02
313.15 K, x1 = 0.6052	0.347 ± 0.02
313.15 K, x1 = 0.7063	0.379 ± 0.02
313.15 K, x1 = 0.8046	0.416 ± 0.02
313.15 K, x1 = 0.9014	0.458 ± 0.02
313.15 K, x1 = 0.9497	0.477 ± 0.02
313.15 K, x1 = 1	0.494 ± 0.02

CCCCCC [hexane] + CCOC(=O)OCC
[2], x2 = 0
Details	viscosity [mPa·s]
293.15 K	0.313 ± 0.02
298.15 K	0.301 ± 0.02
303.15 K	0.282 ± 0.02
313.15 K	0.258 ± 0.02

COC(=O)OC [dimethyl carbonate] + C1CCCCC1
[2]
Details	viscosity [mPa·s]
293.15 K, x1 = 0.0495	0.886 ± 0.021
293.15 K, x1 = 0.0987	0.814 ± 0.021
293.15 K, x1 = 0.2078	0.709 ± 0.021
293.15 K, x1 = 0.2961	0.66 ± 0.021
293.15 K, x1 = 0.3974	0.626 ± 0.021
293.15 K, x1 = 0.5014	0.608 ± 0.021
293.15 K, x1 = 0.6002	0.6 ± 0.021
293.15 K, x1 = 0.7028	0.593 ± 0.021
293.15 K, x1 = 0.7994	0.59 ± 0.021
293.15 K, x1 = 0.9017	0.597 ± 0.021
293.15 K, x1 = 0.9513	0.609 ± 0.021
293.15 K, x1 = 1	0.626 ± 0.021
298.15 K, x1 = 0.0378	0.833 ± 0.021
298.15 K, x1 = 0.0808	0.776 ± 0.021
298.15 K, x1 = 0.1764	0.681 ± 0.021
298.15 K, x1 = 0.2896	0.619 ± 0.021
298.15 K, x1 = 0.388	0.587 ± 0.021
298.15 K, x1 = 0.4938	0.567 ± 0.021
298.15 K, x1 = 0.5908	0.557 ± 0.021
298.15 K, x1 = 0.6864	0.553 ± 0.021
298.15 K, x1 = 0.7918	0.555 ± 0.021
298.15 K, x1 = 0.8976	0.561 ± 0.021
298.15 K, x1 = 0.9503	0.572 ± 0.021
298.15 K, x1 = 1	0.585 ± 0.021
303.15 K, x1 = 0.0391	0.758 ± 0.021
303.15 K, x1 = 0.0931	0.703 ± 0.021
303.15 K, x1 = 0.1875	0.632 ± 0.021
303.15 K, x1 = 0.2908	0.581 ± 0.021
303.15 K, x1 = 0.3897	0.545 ± 0.02
303.15 K, x1 = 0.4962	0.522 ± 0.02
303.15 K, x1 = 0.5958	0.508 ± 0.02
303.15 K, x1 = 0.6909	0.504 ± 0.02
303.15 K, x1 = 0.7975	0.507 ± 0.02
303.15 K, x1 = 0.8912	0.522 ± 0.021
303.15 K, x1 = 0.9441	0.528 ± 0.021
303.15 K, x1 = 1	0.536 ± 0.021
313.15 K, x1 = 0.101	0.605 ± 0.021
313.15 K, x1 = 0.1482	0.574 ± 0.02
313.15 K, x1 = 0.2563	0.524 ± 0.02
313.15 K, x1 = 0.3646	0.495 ± 0.02
313.15 K, x1 = 0.4661	0.477 ± 0.02
313.15 K, x1 = 0.572	0.468 ± 0.02
313.15 K, x1 = 0.6633	0.465 ± 0.02
313.15 K, x1 = 0.7699	0.47 ± 0.02
313.15 K, x1 = 0.8688	0.479 ± 0.02
313.15 K, x1 = 0.9757	0.491 ± 0.02
313.15 K, x1 = 0.9935	0.493 ± 0.02
313.15 K, x1 = 1	0.494 ± 0.02

CCCCCCCC [octane] + COC(=O)OC
[2], x2 = 0
Details	viscosity [mPa·s]
293.15 K	0.545 ± 0.021
298.15 K	0.513 ± 0.021
303.15 K	0.484 ± 0.02
313.15 K	0.434 ± 0.02
